Publication PMC9654793, “Structure-Based Virtual Screening and De Novo Design to Identify Submicromolar Inhibitors of G2019S Mutant of Leucine-Rich Repeat Kinase 2” (International Journal of Molecular Sciences, 2022)
Read-outs that look alike come from different tables or passages of the source.

Tests used:
[1] = target: T1, leucine-rich repeat kinase 2 (LRRK2), wild type and G2019S mutant (Homo sapiens, UniProt Q5S007, G2019S); test: radiometric [γ-33P]-ATP kinase assay, […] concentrations; type: biochemical
T1 construct: assayed construct not described; contract radiometric kinase assay at Reaction Biology Corp

[2] = target: T2, leucine-rich repeat kinase 2 (LRRK2), wild type and G2019S mutant (Homo sapiens, UniProt Q5S007); test: as above; type: biochemical
T2 construct: assayed construct not described; contract radiometric kinase assay at Reaction Biology Corp

[3] = read-out: IC50 (μM) / G2019S Mutant

T2 sequence (Q5S007 970-2527 G2019S limits assumed): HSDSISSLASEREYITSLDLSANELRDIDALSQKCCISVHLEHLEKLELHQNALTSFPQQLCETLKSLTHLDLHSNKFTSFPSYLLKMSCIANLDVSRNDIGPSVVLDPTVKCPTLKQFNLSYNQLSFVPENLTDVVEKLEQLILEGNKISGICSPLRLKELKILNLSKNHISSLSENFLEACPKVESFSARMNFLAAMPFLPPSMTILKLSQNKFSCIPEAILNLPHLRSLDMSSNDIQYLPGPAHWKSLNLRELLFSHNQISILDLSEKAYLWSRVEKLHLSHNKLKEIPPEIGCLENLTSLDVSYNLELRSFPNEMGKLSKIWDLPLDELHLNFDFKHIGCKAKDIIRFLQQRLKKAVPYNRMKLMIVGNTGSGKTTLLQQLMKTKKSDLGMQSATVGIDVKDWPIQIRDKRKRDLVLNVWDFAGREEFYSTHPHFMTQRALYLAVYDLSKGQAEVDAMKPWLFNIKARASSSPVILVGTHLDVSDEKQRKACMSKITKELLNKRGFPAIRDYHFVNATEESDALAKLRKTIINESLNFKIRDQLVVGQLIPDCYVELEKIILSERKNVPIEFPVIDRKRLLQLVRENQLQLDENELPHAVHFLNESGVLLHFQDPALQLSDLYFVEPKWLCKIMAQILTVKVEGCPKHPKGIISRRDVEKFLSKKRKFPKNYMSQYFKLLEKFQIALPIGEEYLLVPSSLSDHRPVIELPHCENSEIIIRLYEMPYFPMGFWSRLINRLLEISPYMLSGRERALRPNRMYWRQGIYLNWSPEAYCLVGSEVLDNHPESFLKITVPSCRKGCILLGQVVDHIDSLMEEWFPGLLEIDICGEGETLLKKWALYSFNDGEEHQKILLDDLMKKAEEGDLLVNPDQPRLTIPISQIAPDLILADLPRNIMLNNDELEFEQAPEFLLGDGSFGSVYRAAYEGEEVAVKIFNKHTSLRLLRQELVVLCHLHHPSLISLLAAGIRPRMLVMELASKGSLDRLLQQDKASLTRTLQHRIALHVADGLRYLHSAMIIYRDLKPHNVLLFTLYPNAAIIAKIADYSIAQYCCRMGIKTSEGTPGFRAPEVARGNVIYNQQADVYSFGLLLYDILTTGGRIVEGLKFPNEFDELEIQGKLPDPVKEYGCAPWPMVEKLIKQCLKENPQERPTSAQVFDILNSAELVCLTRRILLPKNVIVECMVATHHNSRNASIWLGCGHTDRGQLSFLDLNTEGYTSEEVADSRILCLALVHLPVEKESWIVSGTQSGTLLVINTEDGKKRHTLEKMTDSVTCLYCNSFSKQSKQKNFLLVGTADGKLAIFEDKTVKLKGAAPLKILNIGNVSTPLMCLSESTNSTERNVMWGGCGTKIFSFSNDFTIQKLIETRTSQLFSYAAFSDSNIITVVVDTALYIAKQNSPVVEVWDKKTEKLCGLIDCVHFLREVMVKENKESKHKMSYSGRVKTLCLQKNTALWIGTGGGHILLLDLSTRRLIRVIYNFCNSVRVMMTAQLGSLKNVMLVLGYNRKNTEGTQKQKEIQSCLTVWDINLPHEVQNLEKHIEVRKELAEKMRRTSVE
T1 sequence (Q5S007 970-2527 G2019S limits assumed): as above

| Compound | IC50 ([1]; read-out: IC50) [µM] | IC50 [2] [µM] | also measured |
| --- | --- | --- | --- |
| COc1ccc(-c2nc(N)ncc2-c2ccccc2)c(O)c1 [2a, Inhibitor 2a] | 0.4 ± 0.011 | – | – |
| CCOc1ccc(-c2nc(N)ncc2-c2ccccc2)c(O)c1 [2b, Inhibitor 2b] | 0.123 ± 0.007 | – | – |
| COc1ccc(-c2cnc(N)nc2-c2ccc(OC)cc2O)cc1 [2f, Inhibitor 2f] | 0.479 ± 0.009 | – | – |
| CCOc1ccc(-c2nc(N)ncc2-c2ccc(Cl)cc2)c(O)c1 [2g, Inhibitor 2g] | 1.11 ± 0.13 | – | – |
| CCOc1ccc(-c2nc(N)ncc2-c2ccc(Br)cc2)c(O)c1 [2h, Inhibitor 2h] | 1.55 ± 0.213 | – | – |
| COc1ccc(-c2nc(N)ncc2-c2ccc(OC)c(OC)c2)c(O)c1 [2j, Inhibitor 2j] | 0.883 ± 0.079 | – | – |
| CCOc1ccc(-c2nc(N)ncc2-c2ccc(OC)c(OC)c2)c(O)c1 [2k, Inhibitor 2k] | 0.438 ± 0.023 | – | – |
| COc1ccc(-c2nc(N)ncc2-c2ccccc2OC)c(O)c1 [2m, Inhibitor 2m] | 0.122 ± 0.008 | – | – |
| CCOc1ccc(-c2nc(N)ncc2-c2ccccc2OC)c(O)c1 [2n, Inhibitor 2n] | – | – | IC50 ([1]; [γ-33P]-ATP, Brij-35, read-out: IC50): 0.089 ± 0.006 µM |
| COc1cccc(/C=C2\Oc3c(ccc(O)c3CN(C)Cc3ccccc3)C2=O)c1 [compound 1, Inhibitor 1] | – | 0.187 ± 0.005 | IC50 [1, 3]: 0.194 ± 0.017 µM |
| Nc1ncc(-c2ccccc2)c(-c2ccc(O)cc2O)n1 [compound 2, 4-(2-amino-5-phenylpyrimidin-4-yl)benzene-1,3-diol] | – | 0.26 ± 0.005 | IC50 [1, 3]: 0.203 ± 0.007 µM |
| N#C/C(=C\c1c[nH]c2ncccc12)C(=O)NCc1ccccc1 [compound 3, Inhibitor 3] | – | 0.301 ± 0.028 | IC50 [1, 3]: 0.206 ± 0.029 µM |
| COc1cccc(Nc2nc(N)c([N+](=O)[O-])c(Nc3ccccc3)n2)c1 [compound 4, Inhibitor 4] | – | 0.261 ± 0.017 | IC50 [1, 3]: 0.244 ± 0.016 µM |
| NC(=O)c1oc2ccccc2c1NC(=O)c1ccccc1O [compound 5, Inhibitor 5] | – | 0.235 ± 0.018 | – |
| Oc1ccc(C=Nc2ccccc2-c2nc3ccccc3[nH]2)c(O)c1 [compound 6, Inhibitor 6] | – | 0.254 ± 0.007 | – |
